From ChEMBL document CHEMBL1201862, “PubChem BioAssay data set” (2004)
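Method: 48-hour compound exposure of cells in 96-well plates, five concentrations, linear interpolation of endpoints. GI50 marks 50% less growth.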 Activity calls are given as the source filed them. Cut-off read from the data, not from the text of the source: active = GI50 up to about 1.1 µM and inactive = higher.

Tests used:
Assay in all cases: inhibition of tumour cell growth, NCI panel, 48 h
ACHN = system: ACHN
SN12C = system: SN12C
MDA-MB-231 = system: MDA-MB-231
MDA-N = system: MDA-N
T47D = system: T47D
HT-29 = system: HT-29
SK-MEL-28 = system: SK-MEL-28
SK-MEL-2 = system: SK-MEL-2
OVCAR-8 = system: OVCAR-8
SK-MEL-5 = system: SK-MEL-5
NCI-H460 = system: NCI-H460
OVCAR-4 = system: OVCAR-4
CAKI-1 = system: CAKI-1
786-0 = system: 786-0
SNB-19 = system: SNB-19
M14 = system: M14
HOP-92 = system: HOP-92
OVCAR-5 = system: OVCAR-5
SK-OV-3 = system: SK-OV-3
TK-10 = system: TK-10
HCT-15 = system: HCT-15
SR = system: SR
RXF 393 = system: RXF 393
HCT-116 = system: HCT-116
A549 = system: A549
U-251 = system: U-251
UACC-257 = system: UACC-257
MDA-MB-435 = system: MDA-MB-435
SF-268 = system: SF-268
SF-295 = system: SF-295
MOLT-4 = system: MOLT-4
Malme-3M = system: Malme-3M
K562 = system: K562
LOX IMVI = system: LOX IMVI
BT-549 = system: BT-549
IGROV-1 = system: IGROV-1
HOP-62 = system: HOP-62
EKVX = system: EKVX
NCI-H23 = system: NCI-H23
SNB-75 = system: SNB-75
CCRF-CEM = system: CCRF-CEM
UO-31 = system: UO-31
HCC 2998 = system: HCC 2998
COLO 205 = system: COLO 205
PC-3 = system: PC-3
DU-145 = system: DU-145
KM12 = system: KM12
NCI-H522 = system: NCI-H522
MCF7 = system: MCF7
UACC-62 = system: UACC-62
Hs-578T = system: Hs-578T
SW-620 = system: SW-620
HL-60 = system: HL-60
RPMI-8226 = system: RPMI-8226
SF-539 = system: SF-539
OVCAR-3 = system: OVCAR-3
NCI-H226 = system: NCI-H226
NCI/ADR-RES = system: NCI/ADR-RES

COC(=O)CSC1CC(=O)c2c(Cl)sc(Cl)c21 (stereo not given)
GI50 (ACHN): > 100 µM (inactive) | GI50 (SN12C): > 100 µM (inactive) | GI50 (MDA-MB-231): > 100 µM (inactive) | GI50 (MDA-N): > 100 µM (inactive) | GI50 (T47D): > 100 µM (inactive) | GI50 (HT-29): > 100 µM (inactive) | GI50 (SK-MEL-28): > 100 µM (inactive) | GI50 (SK-MEL-2): > 100 µM (inactive) | GI50 (OVCAR-8): > 100 µM (inactive) | GI50 (SK-MEL-5): > 100 µM (inactive) | GI50 (NCI-H460): > 100 µM (inactive) | GI50 (OVCAR-4): > 100 µM (inactive) | GI50 (CAKI-1): > 100 µM (inactive) | GI50 (786-0): > 100 µM (inactive) | GI50 (SNB-19): > 100 µM (inactive) | GI50 (M14): > 100 µM (inactive) | GI50 (HOP-92): > 100 µM (inactive) | GI50 (OVCAR-5): > 100 µM (inactive) | GI50 (SK-OV-3): > 100 µM (inactive) | GI50 (TK-10): > 100 µM (inactive) | GI50 (HCT-15): > 100 µM | GI50 (SR): 66.2 µM (inactive) | GI50 (RXF 393): > 100 µM (inactive) | GI50 (HCT-116): > 100 µM (inactive) | GI50 (A549): > 100 µM (inactive) | GI50 (U-251): > 100 µM (inactive) | GI50 (UACC-257): > 100 µM (inactive) | GI50 (MDA-MB-435): > 100 µM (inactive) | GI50 (SF-268): > 100 µM (inactive) | GI50 (SF-295): > 100 µM (inactive) | GI50 (MOLT-4): > 100 µM (inactive) | GI50 (Malme-3M): > 100 µM (inactive) | GI50 (K562): > 100 µM (inactive) | GI50 (LOX IMVI): > 100 µM (inactive) | GI50 (BT-549): > 100 µM (inactive) | GI50 (IGROV-1): > 100 µM (inactive) | GI50 (HOP-62): > 100 µM (inactive) | GI50 (EKVX): > 100 µM (inactive) | GI50 (NCI-H23): > 100 µM (inactive) | GI50 (SNB-75): > 100 µM (inactive) | GI50 (CCRF-CEM): > 100 µM (inactive) | GI50 (UO-31): > 100 µM (inactive) | GI50 (HCC 2998): > 100 µM (inactive) | GI50 (COLO 205): > 100 µM (inactive) | GI50 (PC-3): > 100 µM (inactive) | GI50 (DU-145): > 100 µM (inactive) | GI50 (KM12): > 100 µM (inactive) | GI50 (NCI-H522): > 100 µM (inactive) | GI50 (MCF7): > 100 µM (inactive) | GI50 (UACC-62): > 100 µM (inactive) | GI50 (Hs-578T): > 100 µM (inactive) | GI50 (SW-620): > 100 µM (inactive)

COc1ccc([C@H]2CC(=O)C[C@H](c3ccc(OC)cc3OC)C23C(=O)c2ccccc2C3=O)c(OC)c1
GI50 (ACHN): > 100 µM (inactive) | GI50 (SN12C): > 100 µM (inactive) | GI50 (MDA-MB-231): > 100 µM (inactive) | GI50 (MDA-N): > 100 µM (inactive) | GI50 (T47D): > 100 µM (inactive) | GI50 (HL-60): > 100 µM (inactive) | GI50 (HT-29): > 100 µM (inactive) | GI50 (SK-MEL-28): > 100 µM (inactive) | GI50 (SK-MEL-2): > 100 µM (inactive) | GI50 (OVCAR-8): 99.5 µM (inactive) | GI50 (SK-MEL-5): 68.1 µM (inactive) | GI50 (NCI-H460): > 100 µM (inactive) | GI50 (OVCAR-4): > 100 µM (inactive) | GI50 (CAKI-1): > 100 µM (inactive) | GI50 (786-0): > 100 µM (inactive) | GI50 (SNB-19): > 100 µM (inactive) | GI50 (RPMI-8226): > 100 µM (inactive) | GI50 (M14): > 100 µM (inactive) | GI50 (SF-539): > 100 µM (inactive) | GI50 (HOP-92): 27.3 µM (inactive) | GI50 (OVCAR-5): > 100 µM (inactive) | GI50 (OVCAR-3): > 100 µM (inactive) | GI50 (SK-OV-3): > 100 µM (inactive) | GI50 (TK-10): > 100 µM (inactive) | GI50 (HCT-15): > 100 µM | GI50 (SR): > 100 µM (inactive) | GI50 (RXF 393): > 100 µM (inactive) | GI50 (HCT-116): > 100 µM (inactive) | GI50 (A549): > 100 µM (inactive) | GI50 (U-251): > 100 µM (inactive) | GI50 (UACC-257): > 100 µM (inactive) | GI50 (MDA-MB-435): > 100 µM (inactive) | GI50 (SF-268): > 100 µM (inactive) | GI50 (SF-295): > 100 µM (inactive) | GI50 (MOLT-4): > 100 µM (inactive) | GI50 (Malme-3M): > 100 µM (inactive) | GI50 (K562): > 100 µM (inactive) | GI50 (LOX IMVI): 65 µM (inactive) | GI50 (BT-549): > 100 µM (inactive) | GI50 (IGROV-1): > 100 µM (inactive) | GI50 (NCI-H226): > 100 µM (inactive) | GI50 (HOP-62): > 100 µM (inactive) | GI50 (EKVX): > 100 µM (inactive) | GI50 (NCI/ADR-RES): > 100 µM (inactive) | GI50 (NCI-H23): > 100 µM (inactive) | GI50 (SNB-75): 26.9 µM (inactive) | GI50 (CCRF-CEM): > 100 µM (inactive) | GI50 (UO-31): > 100 µM (inactive) | GI50 (HCC 2998): > 100 µM (inactive) | GI50 (COLO 205): > 100 µM (inactive) | GI50 (PC-3): > 100 µM (inactive) | GI50 (DU-145): > 100 µM (inactive) | GI50 (KM12): > 100 µM (inactive) | GI50 (NCI-H522): > 100 µM (inactive) | GI50 (MCF7): > 100 µM (inactive) | GI50 (UACC-62): > 100 µM (inactive) | GI50 (Hs-578T): > 100 µM (inactive) | GI50 (SW-620): > 100 µM (inactive)
